The results in this text go back to ChEMBL document CHEMBL1146417, “New anti-HIV-1, antimalarial, and antifungal compounds from Terminalia bellerica” (J Nat Prod, 1997).

One assay has as its system Penicillium expansum. Kind of assay: Antifungal activity against Penicillium expansum IMI 960902 on TLC plate by bioautographic method. Format: functional.
The test system of the next assay is Candida albicans. Description: Antifungal activity against Candida albicans IMI 349010 on TLC plate by agar overlay method. The class given is functional.
Assay [1] concerns Human immunodeficiency virus 1. Description: Antiviral activity against HIV1 in MT4 cells assessed as reduction of HIV antigen production. The class given is functional, organism-based. The following applies: Human immunodeficiency virus 1, MT4.
The next assay relates to Plasmodium falciparum. Kind of assay: Antimalarial activity against chloroquine-sensitive Plasmodium falciparum 3D7 by [3H]hypoxanthine incorporation assay. The class given is functional, organism-based.

Bounds are passed on as bounds.

Broadly, the EC50 is the concentration at which the effect is half-maximal. Usually IC50 stands for the concentration that inhibits the measured activity by half. A lower IC50 goes with inhibition by little substance. As to `Oc1ccc2c(c1)O[C@H](c1ccc3c(c1)OCO3)CC2`, the figures for the Activity in the assay with Penicillium expansum and in the assay on Candida albicans were 3 µg and 6 µg, respectively. In assay [1], the EC50 was determined as 7 µM. Also, the concentration for half-maximal inhibition (IC50) in the assay with Plasmodium falciparum was over 50 µM.

For `C[C@@H]1[C@H](O)[C@@H](C)/C=C/C=C/C=C/C=C/C=C/C=C/C=C/[C@H](O[C@@H]2O[C@H](C)[C@@H](O)[C@H](N)[C@@H]2O)C[C@@H]2O[C@](O)(C[C@@H](O)C[C@@H](O)[C@H](O)CC[C@@H](O)C[C@@H](O)CC(=O)O[C@H]1C)C[C@H](O)[C@H]2C(=O)O` [AMPHOTERICIN B], in the assay with Candida albicans, the Activity is 1 µg.

As to `C=C(Cc1ccc(O)cc1)C(=C)Cc1ccc(O)cc1` [ANOLIGNAN B], the Activity with Penicillium expansum is 5 µg; with Candida albicans it was over 200 µg. Further, the concentration for a half-maximal effect (EC50) in assay [1] worked out at 7 µM. Also, 20.5 µM corresponded to half-maximal inhibition in the assay on Plasmodium falciparum (IC50).

On to `C=C(Cc1ccc(O)cc1)C(=C)Cc1ccc(OC)cc1O` [TERMILIGNAN], for which the Activity amounted to 1 µg in the assay with Penicillium expansum and 10 µg in the assay on Candida albicans. In addition, the EC50 in assay [1] amounted to 7 µM. In the assay on Plasmodium falciparum, this compound registered an IC50 of 9.6 µM.

Take `C=C(Cc1ccc(O)cc1)C(O)(CO)Cc1ccc(OC)cc1O` (stereo not drawn) [THANNILIGNAN]: the Activity was 2 µg in the assay on Penicillium expansum and 80 µg with Candida albicans. Further, the EC50 in assay [1] came out at 7 µM. Moreover, in the assay with Plasmodium falciparum, the IC50 was over 50 µM.

On to NYSTATIN, for which the Activity in the assay on Penicillium expansum came out at 0.5 µg.
